The values below come from US20160287575A1, “COMPOSITIONS AND METHODS FOR THE TREATMENT OF DISEASES INVOLVING HIPPO PATHWAY” (DUKE UNIVERSITY, priority 2013, published 2016).

One test relates to YAP. In words: pharmacological block of YAP protein turnover in RASSF4-deficient aRMS cells. The following applies: RASSF4-deficient aRMS cells versus control; data not shown. The format is cell-based, human. An excerpt:
Finally, we examined whether there was a connection between RASSF4 and YAP. […] Since YAP protein is turned over by sequential phosphorylation and ubiquitin-mediated degradation (Zhao et al., Genes Dev. 24:72-85 (2010)), we attempted to pharmacologically block YAP protein turnover in RASSF4-deficient cells using MG132 or IC 261. […] When examined at the transcriptional level, we observed a decreasing trend in YAP mRNA levels that only reached significance with one RASSF4 shRNA. Since RASSF4 loss of function was causing growth arrest and senescence, we reasoned that these effects on YAP could be caused by the growth arrest itself and RASSF4 loss. […] Instead, cells expressing YAP S127A and RASSF4 shRNA had more pronounced mitotic defects (data not shown). Therefore, while we cannot identify a clear connection between RASSF4 and YAP in aRMS at this time, Hippo signaling is clearly dysregulated at multiple levels in RMS through RASSF4-MST1 and YAP-mediated mechanisms (FIG. 7F).

In a further test the target is T1, MST1 (Homo sapiens, UniProt Q13043, K59R).
T1 construct: expressed in transfected cells; host or cells: HSMM^PF+H+M cells (human skeletal muscle myoblasts expressing PAX3-FOXO1, hTERT, MycN), with or without RASSF4 shRNA
T1 sequence (Q13043 1-487 K59R): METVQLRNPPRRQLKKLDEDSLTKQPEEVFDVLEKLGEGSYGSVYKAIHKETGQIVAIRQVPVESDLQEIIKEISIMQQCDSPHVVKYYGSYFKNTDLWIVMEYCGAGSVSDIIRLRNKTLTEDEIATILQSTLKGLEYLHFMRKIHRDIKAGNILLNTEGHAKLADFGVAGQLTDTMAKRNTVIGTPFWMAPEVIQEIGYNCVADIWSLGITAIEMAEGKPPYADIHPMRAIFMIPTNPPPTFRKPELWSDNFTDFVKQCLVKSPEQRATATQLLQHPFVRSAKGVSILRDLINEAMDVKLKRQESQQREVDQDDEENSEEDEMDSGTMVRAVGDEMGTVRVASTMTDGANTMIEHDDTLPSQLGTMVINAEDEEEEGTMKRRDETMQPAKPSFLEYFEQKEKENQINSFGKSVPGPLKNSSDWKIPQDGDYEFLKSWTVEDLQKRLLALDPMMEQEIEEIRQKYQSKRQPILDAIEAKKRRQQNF
Description: staurosporine stimulation, MST1 phosphorylation by immunoblot. The following applies: MST1 K59R expressing HSMM^PF+H+M cells, 1 μM STS, 1 hour. The format is cell-based. As for the experimental part: (A) RASSF4 deficiency causes MST1 phosphorylation and cleavage upon staurosporine (STS) treatment. Cells expressing FLAG-MST1 K59R were treated for 1 hour with 1 μM STS and examined for phosphor-MST1/2 and total MST1 by immunoblot. (B) Upon 1 hour treatment with 1 μM STS, RASSF4-deficient aRMS cells display higher cleaved caspase 3 as measured by immunoblot. In A and B, actin was used as a loading control.
However, even without the ability to activate downstream signaling, MST1 K59R can still be regulated like wild-type MST1 through phosphorylation by upstream kinases and caspase cleavage. Since endogenous phospho-MST1 levels and MST1 cleavage products were in low abundance in aRMS cells and were difficult to detect, we used cells expressing MST1K59R to boost MST1 expression, while maintaining cell viability. We stimulated cells with staurosporine (STS), a well-established activator of MST1, and examined the role of RASSF4 in MST1 phosphorylation and cleavage (Graves et al., J. Biol. Chem 276:14909-14915 (2001)). […] This is the reported size of the MST1 cleavage fragment believed to be regulated by caspases (Graves et al. (2001); Cheung et al., Cell 113:507-517 (2003); Praskova et al., Biochem J. 381:453-462 (2004)). […]

Test [1] deals with Yki/YAP and transcriptional coactivator TEAD/TEF transcription factors (Homo sapiens, UniProt P46937). The following applies: identified in a screen; cited from earlier work.
Chain of Yki/YAP and transcriptional coactivator TEAD/TEF transcription factors (P46937 whole entry): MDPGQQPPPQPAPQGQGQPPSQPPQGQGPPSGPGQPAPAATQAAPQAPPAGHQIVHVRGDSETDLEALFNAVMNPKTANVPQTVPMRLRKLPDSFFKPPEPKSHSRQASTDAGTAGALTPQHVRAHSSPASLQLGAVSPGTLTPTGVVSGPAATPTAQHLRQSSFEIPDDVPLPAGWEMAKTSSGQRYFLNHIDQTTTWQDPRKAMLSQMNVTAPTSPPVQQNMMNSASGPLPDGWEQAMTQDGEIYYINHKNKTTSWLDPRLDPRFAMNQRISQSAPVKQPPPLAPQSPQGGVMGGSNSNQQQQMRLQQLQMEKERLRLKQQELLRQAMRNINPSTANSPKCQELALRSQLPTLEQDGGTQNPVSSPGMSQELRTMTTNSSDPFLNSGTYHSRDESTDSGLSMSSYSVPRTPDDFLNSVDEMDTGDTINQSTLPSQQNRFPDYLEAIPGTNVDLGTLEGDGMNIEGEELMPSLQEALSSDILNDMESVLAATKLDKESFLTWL
In another test the test system is LATS1. In words: nocodazole treatment, LATS1 phosphorylation by immunoblot. The format is cell-based, human. Conditions: nocodazole-treated HSMM^PF+H+M cells, control and RASSF4-knockdown. A general note: In western blotting, separated proteins are transferred to a membrane and probed.

Residues, ends and D or L forms follow the SMILES beside them. *: point of attachment. Cbz = O=C(OCc1ccccc1)*

Take `COc1cc(OC)c(C=C2C(O)=Nc3ccccc32)c(OC)c1` [IC 261]: the “phospho-YAP and total YAP levels” value in the test on YAP was “still lower”. Regarding `CN[C@@H]1C[C@H]2O[C@@](C)([C@@H]1OC)n1c3ccccc3c3c4c(c5c6ccccc6n2c5c31)C(=O)NC4` [staurosporine], the “phosphorylation of full-length MST1” value at MST1 was “increased phosphorylation of full-length MST1”. With verteporfin, the “disruption of physical interactions between Yki/YAP and TEAD/TEF” value in test [1] was “capable of disrupting physical interactions”. Take `COC(=O)Nc1nc2ccc(C(=O)c3cccs3)cc2[nH]1` [nocodazole]: the “phosphorylated LATS1” value in the test with LATS1 was “reduction in phosphorylated LATS1”. On to `CC(C)C[C@@H](C=O)NC(=O)[C@H](CC(C)C)NC(=O)[C@H](CC(C)C)NC(=O)OCc1ccccc1` [MG132] (Cbz-Leu-Leu-Leu-aldehyde), for which the “phospho-YAP and total YAP levels” value in the test on YAP is “still lower”.
